Source: ChEMBL document CHEMBL1154188, “Kinase inhibitor data modeling and de novo inhibitor design with fragment approaches” (J Med Chem, 2009)

Columns and labels:
[1] = target: Receptor-type tyrosine-protein kinase FLT3 (Homo sapiens) (UniProt P36888); assay: Inhibition of recombinant FLT3 at 20 uM by [gamma-33P]ATP based assay
[2] = target: T1, Serine/threonine-protein kinase Chk2 (Homo sapiens, UniProt O96017); assay: Inhibition of recombinant CHK2 by [gamma-33P]ATP based assay
[3] = target: T2, Hepatocyte growth factor receptor (Homo sapiens, UniProt P08581); assay: Inhibition of recombinant MET by [gamma-33P]ATP based assay
T2 sequence (P08581 whole entry): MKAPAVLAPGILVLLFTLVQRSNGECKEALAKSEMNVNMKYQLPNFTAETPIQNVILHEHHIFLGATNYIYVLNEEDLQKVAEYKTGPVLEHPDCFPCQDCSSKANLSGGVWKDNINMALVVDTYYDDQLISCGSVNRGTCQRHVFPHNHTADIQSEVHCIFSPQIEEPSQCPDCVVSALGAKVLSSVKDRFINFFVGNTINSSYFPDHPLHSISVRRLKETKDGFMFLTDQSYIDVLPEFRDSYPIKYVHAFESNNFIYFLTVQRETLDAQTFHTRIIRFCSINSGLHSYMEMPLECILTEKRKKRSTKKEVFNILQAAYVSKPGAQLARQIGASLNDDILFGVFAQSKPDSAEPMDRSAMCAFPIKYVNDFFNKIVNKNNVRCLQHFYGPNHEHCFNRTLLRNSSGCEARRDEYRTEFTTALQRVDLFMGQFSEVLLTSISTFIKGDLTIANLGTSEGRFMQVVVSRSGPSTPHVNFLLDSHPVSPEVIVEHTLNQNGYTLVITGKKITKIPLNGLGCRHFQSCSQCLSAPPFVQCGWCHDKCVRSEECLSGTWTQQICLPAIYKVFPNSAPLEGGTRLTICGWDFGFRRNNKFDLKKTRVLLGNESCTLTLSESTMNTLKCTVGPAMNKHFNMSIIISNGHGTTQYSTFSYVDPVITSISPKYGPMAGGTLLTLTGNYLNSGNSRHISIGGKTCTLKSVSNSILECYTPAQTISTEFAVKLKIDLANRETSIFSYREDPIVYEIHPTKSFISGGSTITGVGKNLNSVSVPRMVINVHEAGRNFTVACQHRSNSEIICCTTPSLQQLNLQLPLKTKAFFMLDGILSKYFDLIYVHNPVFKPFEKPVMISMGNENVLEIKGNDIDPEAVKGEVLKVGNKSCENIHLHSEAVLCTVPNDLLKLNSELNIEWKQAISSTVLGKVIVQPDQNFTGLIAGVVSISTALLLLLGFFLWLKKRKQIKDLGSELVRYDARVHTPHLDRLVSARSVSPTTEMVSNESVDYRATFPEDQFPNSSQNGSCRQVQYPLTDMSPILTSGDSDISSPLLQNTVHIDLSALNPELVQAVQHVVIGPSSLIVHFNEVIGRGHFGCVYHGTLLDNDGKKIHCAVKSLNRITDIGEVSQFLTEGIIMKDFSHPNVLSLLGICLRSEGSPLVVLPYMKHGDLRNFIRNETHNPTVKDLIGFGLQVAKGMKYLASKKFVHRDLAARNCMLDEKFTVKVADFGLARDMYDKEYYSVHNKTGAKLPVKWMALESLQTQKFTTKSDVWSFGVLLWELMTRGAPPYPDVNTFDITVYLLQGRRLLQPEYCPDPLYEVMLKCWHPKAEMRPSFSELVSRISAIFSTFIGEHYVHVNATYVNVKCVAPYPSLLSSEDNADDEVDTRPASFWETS

[4] = target: Rho-associated protein kinase 2 (Homo sapiens) (UniProt O75116); assay: Inhibition of recombinant ROCK2 at 20 uM by [gamma-33P]ATP based assay
Rho-associated protein kinase 2 (Homo sapiens), sequence (O75116 whole entry, looked up): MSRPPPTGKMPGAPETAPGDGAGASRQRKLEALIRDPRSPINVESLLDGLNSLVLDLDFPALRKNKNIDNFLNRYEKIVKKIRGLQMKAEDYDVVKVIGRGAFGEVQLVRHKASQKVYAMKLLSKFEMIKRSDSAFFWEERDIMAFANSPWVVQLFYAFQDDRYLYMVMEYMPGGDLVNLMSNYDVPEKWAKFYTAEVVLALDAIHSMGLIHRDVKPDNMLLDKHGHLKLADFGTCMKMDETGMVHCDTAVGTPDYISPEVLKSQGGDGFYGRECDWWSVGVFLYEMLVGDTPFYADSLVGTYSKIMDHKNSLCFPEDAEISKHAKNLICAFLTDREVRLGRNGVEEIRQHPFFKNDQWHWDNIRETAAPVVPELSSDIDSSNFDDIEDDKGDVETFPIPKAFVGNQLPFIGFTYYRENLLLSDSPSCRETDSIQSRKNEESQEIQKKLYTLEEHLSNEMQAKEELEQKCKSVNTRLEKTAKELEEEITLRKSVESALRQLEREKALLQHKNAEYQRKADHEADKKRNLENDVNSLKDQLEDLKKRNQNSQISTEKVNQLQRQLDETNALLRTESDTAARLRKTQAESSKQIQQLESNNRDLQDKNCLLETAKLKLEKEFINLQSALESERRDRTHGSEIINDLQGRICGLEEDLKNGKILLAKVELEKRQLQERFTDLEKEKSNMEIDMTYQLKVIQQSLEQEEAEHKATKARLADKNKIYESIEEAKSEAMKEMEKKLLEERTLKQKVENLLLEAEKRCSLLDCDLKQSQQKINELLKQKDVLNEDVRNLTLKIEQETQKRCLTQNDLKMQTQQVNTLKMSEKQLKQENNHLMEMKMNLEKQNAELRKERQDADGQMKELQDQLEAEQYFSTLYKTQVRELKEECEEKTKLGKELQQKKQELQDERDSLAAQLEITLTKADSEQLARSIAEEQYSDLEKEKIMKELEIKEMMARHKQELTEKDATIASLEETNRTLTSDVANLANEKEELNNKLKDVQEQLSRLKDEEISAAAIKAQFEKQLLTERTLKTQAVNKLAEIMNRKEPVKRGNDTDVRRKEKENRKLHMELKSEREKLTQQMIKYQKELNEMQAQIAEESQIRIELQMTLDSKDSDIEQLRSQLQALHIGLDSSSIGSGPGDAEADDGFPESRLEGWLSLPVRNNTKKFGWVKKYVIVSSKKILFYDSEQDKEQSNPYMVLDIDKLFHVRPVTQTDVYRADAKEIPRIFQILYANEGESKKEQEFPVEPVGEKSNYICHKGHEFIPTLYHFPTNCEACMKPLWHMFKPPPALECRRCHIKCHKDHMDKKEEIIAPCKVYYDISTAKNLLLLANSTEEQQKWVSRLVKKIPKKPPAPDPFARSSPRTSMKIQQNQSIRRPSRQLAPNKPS

[5] = target: Tyrosine-protein kinase ABL1 (Homo sapiens) (UniProt P00519); assay: Inhibition of recombinant ABL1 at 20 uM by [gamma-33P]ATP based assay
[6] = target: T1, Serine/threonine-protein kinase Chk2; assay: Inhibition of recombinant CHK2 at 20 uM by [gamma-33P]ATP based assay
[7] = target: Ribosomal protein S6 kinase beta-1 (Homo sapiens) (UniProt P23443); assay: Inhibition of recombinant P70S6K at 20 uM by [gamma-33P]ATP based assay
Ribosomal protein S6 kinase beta-1 (Homo sapiens), sequence (P23443 whole entry, looked up): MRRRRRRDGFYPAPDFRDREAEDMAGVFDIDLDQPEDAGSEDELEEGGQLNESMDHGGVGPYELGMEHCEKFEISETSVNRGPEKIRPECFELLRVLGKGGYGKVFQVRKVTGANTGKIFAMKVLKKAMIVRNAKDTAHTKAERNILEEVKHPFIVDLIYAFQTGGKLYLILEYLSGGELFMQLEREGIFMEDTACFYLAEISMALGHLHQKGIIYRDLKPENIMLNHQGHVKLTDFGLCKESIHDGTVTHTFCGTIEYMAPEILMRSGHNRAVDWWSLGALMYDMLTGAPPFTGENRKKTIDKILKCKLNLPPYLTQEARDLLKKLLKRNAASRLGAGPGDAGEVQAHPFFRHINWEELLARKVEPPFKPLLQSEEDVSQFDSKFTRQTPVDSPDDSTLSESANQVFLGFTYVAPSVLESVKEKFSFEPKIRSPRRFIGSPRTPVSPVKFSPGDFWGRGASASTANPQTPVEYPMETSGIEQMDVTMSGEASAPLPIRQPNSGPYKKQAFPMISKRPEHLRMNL

[8] = target: T2, Hepatocyte growth factor receptor; assay: Inhibition of recombinant MET at 20 uM by [gamma-33P]ATP based assay

Receptor-type tyrosine-protein kinase FLT3 (Homo sapiens), sequence (P36888 whole entry): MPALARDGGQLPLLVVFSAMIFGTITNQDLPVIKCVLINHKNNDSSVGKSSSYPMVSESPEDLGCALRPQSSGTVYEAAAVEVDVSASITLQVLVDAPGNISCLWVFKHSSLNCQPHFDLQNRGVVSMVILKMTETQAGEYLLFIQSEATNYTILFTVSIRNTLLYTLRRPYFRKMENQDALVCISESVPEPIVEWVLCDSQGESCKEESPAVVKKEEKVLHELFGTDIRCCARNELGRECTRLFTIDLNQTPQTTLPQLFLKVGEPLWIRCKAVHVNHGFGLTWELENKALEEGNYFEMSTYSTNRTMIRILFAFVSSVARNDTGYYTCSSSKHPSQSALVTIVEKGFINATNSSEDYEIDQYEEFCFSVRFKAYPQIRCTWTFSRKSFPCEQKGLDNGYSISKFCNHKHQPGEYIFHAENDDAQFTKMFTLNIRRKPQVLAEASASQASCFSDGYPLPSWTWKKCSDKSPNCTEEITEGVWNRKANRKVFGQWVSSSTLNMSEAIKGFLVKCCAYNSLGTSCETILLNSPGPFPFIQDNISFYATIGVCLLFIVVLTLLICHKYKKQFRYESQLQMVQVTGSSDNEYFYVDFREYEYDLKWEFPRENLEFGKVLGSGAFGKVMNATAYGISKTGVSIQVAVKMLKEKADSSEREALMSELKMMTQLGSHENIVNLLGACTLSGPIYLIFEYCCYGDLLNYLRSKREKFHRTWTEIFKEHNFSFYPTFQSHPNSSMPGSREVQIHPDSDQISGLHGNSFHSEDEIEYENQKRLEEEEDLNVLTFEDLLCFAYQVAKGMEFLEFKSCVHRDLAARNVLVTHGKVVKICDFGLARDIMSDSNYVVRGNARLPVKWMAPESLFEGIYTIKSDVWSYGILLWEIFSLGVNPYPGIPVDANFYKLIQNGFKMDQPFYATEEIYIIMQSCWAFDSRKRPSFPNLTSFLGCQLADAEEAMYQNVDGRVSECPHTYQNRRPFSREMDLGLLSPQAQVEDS
T1 sequence (O96017 whole entry): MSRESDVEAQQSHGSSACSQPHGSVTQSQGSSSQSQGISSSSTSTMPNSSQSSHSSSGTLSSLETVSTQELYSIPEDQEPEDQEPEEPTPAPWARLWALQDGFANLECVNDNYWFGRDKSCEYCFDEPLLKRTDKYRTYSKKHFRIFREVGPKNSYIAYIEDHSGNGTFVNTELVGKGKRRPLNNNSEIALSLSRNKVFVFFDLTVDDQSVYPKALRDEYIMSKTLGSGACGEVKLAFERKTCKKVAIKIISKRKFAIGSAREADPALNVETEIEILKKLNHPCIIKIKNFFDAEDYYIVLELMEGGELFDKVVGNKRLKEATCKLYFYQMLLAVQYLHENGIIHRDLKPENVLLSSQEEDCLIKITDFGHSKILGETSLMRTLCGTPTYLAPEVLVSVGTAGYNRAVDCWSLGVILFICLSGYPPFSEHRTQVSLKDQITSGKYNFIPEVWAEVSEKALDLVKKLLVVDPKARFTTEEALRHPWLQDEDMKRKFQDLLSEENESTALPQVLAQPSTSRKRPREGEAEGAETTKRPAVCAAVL

inhibition [1] [%]	IC50 [2] [nM]	IC50 [3] [nM]	inhibition [4] [%]	inhibition [5] [%]	inhibition [6] [%]	inhibition [7] [%]	inhibition [8] [%]	Structure (SMILES)
102	800	5520	99	85	98	98	73	Nc1ncc(-c2ccc(C(=O)NC3CCNCC3)cc2)nc1Oc1ccc2cc[nH]c2c1
61	1130	1210	42	11	60	45	53	CC(Oc1nc(-c2ccc(C(=O)NCC3CCCNC3)cc2)cnc1N)c1c(Cl)cccc1Cl (stereo unspecified)
86	610	13700	37	84	96	100	65	Nc1ncc(-c2ccc(C(=O)N[C@@H]3CCNC3)cc2)nc1Oc1ccc2cc[nH]c2c1
100	960	4270	97	87	98	86	77	Nc1ncc(-c2ccc(C(=O)NCC3CCCN3)cc2)nc1Oc1ccc2cc[nH]c2c1 (stereo unspecified)
99	890	7090	98	81	98	101	65	Nc1ncc(-c2ccc(C(=O)NCC3CCCNC3)cc2)nc1Oc1ccc2cc[nH]c2c1 (stereo unspecified)
94	1120	3330	98	94	97	92	96	Nc1ncc(-c2ccc(C(=O)NCC3CCNCC3)cc2)nc1Oc1ccc2cc[nH]c2c1
93	580	3550	98	87	98	89	75	Nc1ncc(-c2ccc(C(=O)NCC3CCNC3)cc2)nc1Oc1ccc2cc[nH]c2c1 (stereo unspecified)
